From patent publication US20060079453A1, “Hla binding peptides and their uses” (priority 2002, published 2006)
pIC50: −log10 of the molar value. No end group written: not given here.

What was measured:
Experiment in all cases: biochemical
Assay type in all cases: binding
HLA-DR DRB1*1302 (DR13) = HLA-DR DRB1*1302 (DR13) (Homo sapiens, UniProt P01903+P01911, A100E/A169T/K41T/L162R/M171V/P40S/Q125H/Q178H/Q39Y/Q99D/R42S/S66N/T262R/V115G/W38E/Y61H); conditions: DRBI *1302
HLA-DR DRB3*0101 (DR52) = HLA-DR DRB3*0101 (DR52) (Homo sapiens, UniProt P01903+P79483)
HLA-DR DRB4*0101 (DR53) = HLA-DR DRB4*0101 (DR53) (Homo sapiens, UniProt P01903+P13762, G164S); conditions: DRB4 *0101
HLA-DR DRB1*1101 (DR11) = HLA-DR DRB1*1101 (DR11) (Homo sapiens, UniProt P01903+P01911, A100R/A169T/A87E/I96F/K41T/L162R/M171V/P40S/Q125H/Q178H/Q39Y/Q99D/R42S/S66Y/T262R/V115G/W38E); conditions: DRB1 *1101
HLA-DR DRB1*0802 (DR8) = HLA-DR DRB1*0802 (DR8) (Homo sapiens, UniProt P01903+P01911, A100R/A103L/A169T/F76Y/H45Y/I96F/K41T/L162R/M171V/P40S/Q125H/Q178H/Q39Y/Q99D/R218S/R42G/S66Y/V115G/W38E)
HLA-DR DRB1*1501 (DR15) = HLA-DR DRB1*1501 (DR15) (Homo sapiens, UniProt P01903+P01911); conditions: DRBI *1501
HLA-DR DRB1*0901 (DR9) = HLA-DR DRB1*0901 (DR9) (Homo sapiens, UniProt P01903+P01911, A100R/A103E/D57H/D86V/F55Y/F60I/F76Y/I96F/K127E/L162R/M171V/P40D/Q125H/Q99R/R33Q/R42F/S133A/S66N/T210M/V115G/W38K/Y107V/Y59G/Y89S); conditions: DRB1 *0901
HLA-DR DRB5*0101 (DR51) = HLA-DR DRB5*0101 (DR51) (Homo sapiens, UniProt P01903+Q30154); conditions: DRB5 *0101
HLA-DR DRB1*0701 (DR7) = HLA-DR DRB1*0701 (DR7) (Homo sapiens, UniProt P01903+P01911, A100R/A102G/A103Q/D57E/D86V/E43K/F76Y/K127E/L162R/M171V/P40G/Q125H/Q99D/R33Q/R42Y/R54Q/S133A/S66F/T210M/V115G/Y107V/Y59L/Y89S); conditions: DRB1 *0701
HLA-DR DRB1*0401 (DR4) = HLA-DR DRB1*0401 (DR4) (Homo sapiens, UniProt P01903+P01911, A100K/A169T/F76Y/I96L/K127E/L162R/M171V/N62H/P40V/Q125Y/R42H/S133A/S149N/S66Y/V115G/V209L/W38E); conditions: DRB1 *0401
HLA-DR DRB1*0101 (DR1) = HLA-DR DRB1*0101 (DR1) (Homo sapiens, UniProt P01903+P01911, A100R/D57E/F55L/F60I/F76Y/I96L/L162R/M171V/P40L/Q125E/R42F/V115G/Y59C); conditions: DRB1 *0101

Sequence of HLA-DR DRB1*1302 (DR13) (P01903 26-254 limits assumed, other chains not shown): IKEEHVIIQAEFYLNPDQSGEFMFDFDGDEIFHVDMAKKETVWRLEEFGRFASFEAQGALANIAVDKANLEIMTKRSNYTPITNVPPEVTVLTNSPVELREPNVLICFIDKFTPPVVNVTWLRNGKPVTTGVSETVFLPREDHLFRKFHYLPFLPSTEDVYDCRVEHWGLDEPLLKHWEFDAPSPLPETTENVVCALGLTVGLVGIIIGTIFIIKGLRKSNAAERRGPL
Sequence of HLA-DR DRB1*1101 (DR11) (P01903 26-254 limits assumed, other chains not shown): as above

Molecule | pIC50 (HLA-DR DRB1*1302 (DR13)) | pIC50 (HLA-DR DRB3*0101 (DR52)) | pIC50 (HLA-DR DRB4*0101 (DR53)) | pIC50 (HLA-DR DRB1*1101 (DR11)) | pIC50 (HLA-DR DRB1*0802 (DR8)) | pIC50 (HLA-DR DRB1*1501 (DR15)) | pIC50 (HLA-DR DRB1*0901 (DR9)) | pIC50 (HLA-DR DRB5*0101 (DR51)) | pIC50 (HLA-DR DRB1*0701 (DR7)) | pIC50 (HLA-DR DRB1*0401 (DR4)) | pIC50 (HLA-DR DRB1*0101 (DR1))
CC(C)C[C@H](NC(=O)[C@H](CCC(=O)O)NC(=O)[C@H](CCCCN)NC(=O)[C@H](C)NC(=O)[C@H](CC(C)C)NC(=O)[C@@H](NC(=O)[C@H](CO)NC(=O)[C@H](CCCNC(=N)N)NC(=O)[C@@H](N)CC(=O)O)C(C)C)C(=O)N[C@@H](CCCCN)C(=O)N[C@@H](Cc1ccccc1)C(=O)N[C@H](C(=O)N[C@H](C(=O)N[C@@H](CC(C)C)C(=O)N[C@H](C(=O)O)C(C)C)[C@@H](C)O)C(C)C | 5.36 | < 4.84 | 7.28 | 4.68 | 4.80 | 5.87 | 5.33 | 5.65 | 5.70 |  | 
TNKFSGYPLYHSVYE | < 4.46 | < 4.66 |  | 4.48 | 6.21 | 6.31 | 6.13 | 5.53 | 4.51 | 5.26 | 5.47
CC(C)C[C@H](NC(=O)[C@H](CCC(N)=O)NC(=O)[C@H](C)NC(=O)[C@H](CC(N)=O)NC(=O)[C@H](CCCCN)NC(=O)[C@@H](NC(=O)[C@H](CCCCN)NC(=O)[C@H](CC(N)=O)NC(=O)CN)C(C)C)C(=O)N[C@@H](C)C(=O)NCC(=O)N[C@@H](C)C(=O)N[C@@H](CCCCN)C(=O)NCC(=O)N[C@H](C(=O)O)C(C)C | < 4.46 | < 4.90 |  | < 4.18 | 4.54 | < 4.34 | 5.10 | 5.91 | < 4.08 |  | 6.17
CC[C@H](C)[C@H](NC(=O)[C@@H](N)CC(C)C)C(=O)N[C@@H](CCSC)C(=O)N[C@@H](Cc1ccc(O)cc1)C(=O)N[C@@H](CO)C(=O)N[C@@H](C)C(=O)N[C@@H](Cc1c[nH]cn1)C(=O)N[C@@H](CC(=O)O)C(=O)N[C@H](C(=O)N[C@H](C(=O)N[C@H](C(=O)N[C@@H](CO)C(=O)NCC(=O)N[C@@H](CC(C)C)C(=O)N[C@@H](CCC(N)=O)C(=O)O)C(C)C)[C@@H](C)O)[C@@H](C)O | 5.76 | 5.17 | 5.36 | < 4.18 | 4.61 | 6.74 | 6.09 | < 4.00 |  | 7.62 | 5.35
CC[C@H](C)[C@H](NC(=O)[C@@H]1CCCN1C(=O)[C@H](Cc1c[nH]cn1)NC(=O)[C@@H](NC(=O)[C@@H]1CCCN1C(=O)[C@@H](NC(=O)[C@H](CO)NC(=O)[C@@H]1CCCN1C(=O)[C@H](CC(C)C)NC(=O)CNC(=O)[C@@H](NC(=O)[C@H](C)NC(=O)[C@H](CCC(=O)O)NC(=O)[C@H](C)N)C(C)C)[C@@H](C)CC)C(C)C)C(=O)NCC(=O)O | 5.26 | < 4.93 |  | < 4.18 | < 3.31 | 7.25 | 4.64 | 4.16 | 5.70 | 5.00 | 8.27
CSCC[C@H](NC(=O)[C@H](CCC(=O)O)NC(=O)[C@H](CCC(N)=O)NC(=O)[C@@H]1CCCN1)C(=O)N[C@@H](CCCCN)C(=O)N[C@H](C(=O)N[C@@H](Cc1ccc(O)cc1)C(=O)N[C@@H](CO)C(=O)N[C@H](C(=O)N[C@@H](CO)C(=O)N[C@@H](Cc1ccccc1)C(=O)N[C@@H](CC(=O)O)C(=O)N[C@@H](CO)C(=O)N[C@@H](CC(C)C)C(=O)N[C@@H](Cc1ccccc1)C(=O)O)C(C)C)[C@@H](C)O | 4.61 | 4.84 | 6.24 | < 4.30 | < 4.01 | 6.04 | 5.70 | ≤ 4.00 |  | 5.52 | 4.82
NMSLLKHQSLRPDED [NMSLLKHQSLRPDED] | < 4.46 | < 4.83 |  | 4.59 | 4.58 | < 4.52 | 4.01 | < 4.00 |  | < 4.40 | 5.50
CC[C@H](C)[C@H](NC(=O)[C@H](CO)NC(=O)[C@H](CC(N)=O)NC(=O)[C@H](C)NC(=O)[C@H](CC(C)C)NC(=O)[C@H](CCC(=O)O)NC(=O)[C@H](Cc1ccccc1)NC(=O)[C@@H](N)C(C)C)C(=O)N[C@H](C(=O)N[C@@H](CC(C)C)C(=O)N1CCC[C@H]1C(=O)N[C@@H](Cc1ccccc1)C(=O)N[C@@H](CC(=O)O)C(=O)N[C@@H](CS)C(=O)N[C@@H](CCCNC(=N)N)C(=O)O)C(C)C | 7.62 | 6.89 |  | 4.93 | 4.44 | 6.32 | 7.30 |  | 7.41 | 6.00 | 7.72
LSGLHGQDLFGIWSK | < 4.46 | < 5.05 |  | 4.52 | < 4.09 | 4.49 | < 3.90 | 4.09 | < 4.45 | < 4.57 | 6.83
RVPVSHSFPHPLYNM | 6.42 | < 4.83 | 5.04 | < 3.70 | 4.00 | 5.26 | 7.01 |  |  | < 4.80 | 7.17
CC[C@H](C)[C@H](NC(=O)[C@H](CO)NC(=O)[C@@H](NC(=O)CNC(=O)[C@H](CCC(=O)O)NC(=O)[C@@H]1CCCN1)C(C)C)C(=O)N[C@@H](Cc1c[nH]c2ccccc12)C(=O)N[C@@H](CC(N)=O)C(=O)N1CCC[C@H]1C(=O)N[C@H](C(=O)N[C@@H](CC(C)C)C(=O)N[C@@H](CC(C)C)C(=O)N[C@@H](Cc1c[nH]c2ccccc12)C(=O)N[C@@H](CCC(N)=O)C(=O)N1CCC[C@H]1C(=O)O)[C@@H](C)CC |  | 5.33 | 6.97 | 4.51 | 4.54 | 8.14 | 3.99 | 4.65 | 4.82 | 5.75 | 
